Data published in the supplement of paper PMC13380429.

Legend:
Details in all cases: 72 h
[1] = tested on: Calu-3; experiment: relative viability EC50 (midpoint between 100% and the lowest measured viability); higher = less toxic
[2] = tested on: Caco-2; experiment: as above
[3] = tested on: Vero E6; experiment: as above
[4] = tested on: HepG2; experiment: as above
[5] = tested on: U2OS; experiment: as above
[6] = tested on: Calu-3; experiment: cell viability relative to DMSO; higher = less toxic
[7] = tested on: Caco-2; experiment: as above
[8] = tested on: Vero E6; experiment: as above
[9] = tested on: HepG2; experiment: as above
[10] = tested on: U2OS; experiment: as above
[11] = tested on: Calu-3; experiment: drug sensitivity score (DSS) for viability; higher = more toxic; extreme values may be limits of the assay
[12] = tested on: Caco-2; experiment: as above
[13] = tested on: Vero E6; experiment: as above
[14] = tested on: HepG2; experiment: as above
[15] = tested on: U2OS; experiment: as above

Compound	relative viability EC50 [1] [µM]	relative viability EC50 [2] [µM]	relative viability EC50 [3] [µM]	relative viability EC50 [4] [µM]	relative viability EC50 [5] [µM]	cell viability ([6]; 1 nM) [%]	cell viability ([6]; 10 nM) [%]	cell viability ([6]; 100 nM) [%]	cell viability ([6]; 1000 nM) [%]	cell viability ([6]; 10000 nM) [%]	cell viability ([7]; 1 nM) [%]	cell viability ([7]; 10 nM) [%]	cell viability ([7]; 100 nM) [%]	cell viability ([7]; 1000 nM) [%]	cell viability ([7]; 10000 nM) [%]	cell viability ([8]; 1 nM) [%]	cell viability ([8]; 10 nM) [%]	cell viability ([8]; 100 nM) [%]	cell viability ([8]; 1000 nM) [%]	cell viability ([8]; 10000 nM) [%]	cell viability ([9]; 1 nM) [%]	cell viability ([9]; 10 nM) [%]	cell viability ([9]; 100 nM) [%]	cell viability ([9]; 1000 nM) [%]	cell viability ([9]; 10000 nM) [%]	cell viability ([10]; 1 nM) [%]	cell viability ([10]; 10 nM) [%]	cell viability ([10]; 100 nM) [%]	cell viability ([10]; 1000 nM) [%]	cell viability ([10]; 10000 nM) [%]	drug sensitivity score [11]	drug sensitivity score [12]	drug sensitivity score [13]	drug sensitivity score [14]	drug sensitivity score [15]
COc1c(-c2ccc3cc(NS(C)(=O)=O)ccc3c2)cc(-n2ccc(=O)[nH]c2=O)cc1C(C)(C)C [dasabuvir]	> 10	> 10	> 10	> 10	> 10	94	106	93.7	97.9	104	96.2	94.5	87.8	98.9	96.3	91.5	98.3	92.8	97	106	90.4	102	90.4	102	109	98.5	96.9	102	96.5	96.3	0	0	0	0	0
C[N+](C)(C)CCCCCCCCCC[N+](C)(C)C [decamethonium]	> 10	> 10	> 10	> 10	> 10	88.3	114	95.6	108	89.3	98.1	93.1	99.1	99.9	97.4	101	98	102	95.7	99.7	102	99.2	96.2	93.2	104	98.3	99.8	94	97.3	95.5	0	0	0	0	0
CC(=O)N[C@H](Cc1ccc2ccccc2c1)C(=O)N[C@H](Cc1ccc(Cl)cc1)C(=O)N[C@H](Cc1cccnc1)C(=O)N[C@@H](CO)C(=O)N[C@@H](Cc1ccc(NC(=O)[C@@H]2CC(=O)NC(=O)N2)cc1)C(=O)N[C@H](Cc1ccc(NC(N)=O)cc1)C(=O)N[C@@H](CC(C)C)C(=O)N[C@@H](CCCCNC(C)C)C(=O)N1CCC[C@H]1C(=O)N[C@H](C)C(N)=O [degarelix]	> 10	> 10	> 10	> 10	> 10	103	104	91.7	91.9	96.6	90.3	92.8	99.9	90.4	99.6	95.6	93.8	92	89.8	101	103	80.7	112	91	110	97.1	97	98.7	99.9	101	0	0	0	0	0
CCN[C@@H](C)Cc1cccc(C(F)(F)F)c1 [dexfenfluramine]	> 10	> 10	> 10	> 10	> 10	97.4	109	105	118	113	105	114	89.8	108	106	99.4	92.7	100	90.7	94.7	106	93.7	105	82.9	97.5	93.5	96.7	96.1	94.3	101	0	0	0	0	0
